Reference: PMC12298624, “Anti-Infective Properties, Cytotoxicity, and In Silico ADME Parameters of Novel 4′-(Piperazin-1-yl)benzanilides” (Pharmaceuticals, 2025)
pIC50: −log10 of the molar value. Like-named read-outs stand apart in the source and are kept apart here.

Key:
P. falciparum NF54 [1] = test: In vitro microplate assay against P. falciparum NF54 (3H-hypoxanthine incorporation); assay type: cell-based, Plasmodium falciparum; settings: chloroquine-sensitive strain NF54, erythrocytic stages; read-out: P.f.NF54 IC50
Procedure, shortened: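 Parasites exposed to eleven 3-fold drug dilutions spanning 100 to 0.002 µg/mL for 48 h, then ^3H-hypoxanthine (0.5 µCi/well) added for a further 24 h. Incorporated radioactivity counted by liquid scintillation after harvesting onto glass fiber filters. IC50 from sigmoidal inhibition curves by linear regression.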

L-6 cells = test: Resazurin-based in vitro cytotoxicity with L-6 cells; assay type: cell-based, rat
Procedure, shortened: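 Compounds tested in eleven 3-fold serial dilutions from 100 to 0.002 µg/mL over 70 h incubation. IC50 obtained by linear regression from sigmoidal dose–inhibition curves.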

HepG2 cells = test: Resazurin-based in vitro cytotoxicity with HepG2 cells; assay type: cell-based, human
Procedure, shortened: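 HepG2 cells, 5000 per well in DMEM with 1% FBS, exposed 48 h at 37° C to ten 3-fold dilutions (100.0–0.005 µM). Then 50 µM resazurin for 3 h, fluorescence read at 555/570 nm, IC50 calculated; doxorubicin as control.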

P. falciparum NF54 [2] = test system: P. falciparum NF54; set-up: method as in PMID 34832891, PMID 36558954; settings: Figure 1, earlier studies; ref [12],[13]; read-out: PfNF54 IC50; cited from earlier work

Compound | pIC50 (P. falciparum NF54 [1]) | pIC50 (L-6 cells) | pIC50 (HepG2 cells) | pIC50 (P. falciparum NF54 [2])
2-(4-Fluorophenoxy)-N-[4-(pyrrolidin-4-yl)phenyl]-3-(trifluoromethyl)benzamide [Compound 34] | 5.77 | 3.73 | 4.40 | –
CC(C)(C)OC(=O)N1CCN(c2ccc(NC(=O)c3cccc(C(F)(F)F)c3Sc3ccc(F)cc3)cc2)CC1 [derivate III] | – | – | – | 6.82
CC(C)(C)C(=O)N1CCN(c2ccc(NC(=O)c3cccc(C(F)(F)F)c3Oc3ccc(F)cc3)cc2)CC1 [derivate II] | – | – | – | 6.24
CC(C)(C)OC(=O)N1CCN(c2ccc(NC(=O)c3cccc(C(F)(F)F)c3Nc3ccc(F)cc3)cc2)CC1 [derivate IV] | – | – | – | 6.27
CC(C)(C)OC(=O)N1CCN(c2ccc(NC(=O)c3cccc(C(F)(F)F)c3Oc3ccc(F)cc3)cc2)CC1 [derivate I] | – | – | – | 6.57
